Experiments:
[1] = test system: NSCs isolated from the hippocampus of adult rats; assay: MTT cell viability/survival of NSCs treated with IM; format: cell-based, rat; conditions: 3 μM IM; Day 3, Day 5 and Day 7 cultures; p<0.05
Protocol: Adult Sprague-Dawley (SD) rats (8 weeks old, 250 g) were anesthetized with intraperitoneal phenobarbital (Sigma, USA), and the location of their brains was mapped. Then, the brain was surgically separated from the hippocampus region. In brief, tissues from the hippocampus of adult rats were dissociated and incubated in Hank's balanced salt solution (HBSS) containing collagenase (78 units/ml) and hyaluronidase (38 units/ml) for 10 minutes at 37° C. The tissues were then mechanically dissected and placed in a trypsin solution (1.33 mg/ml) at 37° C. for another 10 minutes. Dissociated cells were then centrifuged at 150 GG for 5 minutes. […] Viable cells were counted by trypan blue exclusion and plated as 5000 cells/200 μL per well in 96-well plates (Corning Inc, Acton, Mass., USA) with no substrate pretreatment. […] The amount of MTT fromazon product was determined using a microplate reader and the absorbance was measured at 560 nm (SpectraMax 250, Molecular Devices, Sunnyvale, Calif., USA). […] Each individual sample was analyzed in triplicate.

NSCs = assay: Real-time RT-PCR mRNA expression in IM-treated NSCs; format: cell-based, rat
Protocol: For real-time RT-PCR, the total RNA was extracted using the RNAeasy kit (Qiagen, Valencia, Calif., USA). Briefly, total RNA (1 μg) of each sample was reverse transcribed in 20 μL using 0.5 μg of oligo dT and 200 U Superscript II RT (Invitrogen, Carlsbad, Calif., USA). The amplification was carried out in a total volume of 20 μl containing 0.5 μM of each primer, 4 mM MgCl2, 2 μl LightCycler™ FastStart DNA Master SYBR green I (Roche Molecular Systems, Alameda, Calif., USA) and 2 μl of 1:10 diluted cDNA. The quantification in the unknown samples was performed with LightCycler Relative Quantification Software version 3.3 (Roche Molecular Systems, Alameda, Calif., USA). In each experiment, the GAPDH housekeeping gene was amplified as a reference standard. GAPDH primers were designed: GAPDH(f): […] (nt 414-434, GenBank accession no. BC059110.1), GAPDH(r): ATGACCTTGCCCACA GCCTT (nt 713-733). Other target gene primers were as follows: BDNF(f) 5′-CCAAGGCAGGTTCAA GAG-3′. BDNF(r): 5′-CCAGCAGAAAGAGAAGAGG-3′ (nt 146-331, GenBank accession no.NM_170735). Bcl-2(f): […] (nt 527-550, GenBank accession no. NM_016993.1), Bcl-2(r): GTTGTCCA CCAGGGGTGACAT (nt 721-742). Bax(f): GTGGT TGCCCTCTTCTACTTTGC (nt 328-351, GenBank accession no. NM_017059.1), Bax(r): GAGGACT CCAGCCACAAAGATG (nt 522-544). MAP2(f): GTTTACATTGTTCAGGAC CTCATGG (nt 316-341); MAP2(r): TCGGTAAGAAAGCC AGTGTGGT (nt 551-573. GenBank accession no. NM_U12008.1). Reactions were prepared in duplicate and heated to 95° C. for 10 minutes followed by 40 cycles of denaturation at 95° C. for 10 seconds, annealing at 55° C. for 5 seconds, and extension at 72° C. for 20 seconds. All PCR reactions were performed in duplicate. Standard curves (cycle threshold values versus template concentration) were prepared for each target gene and for the endogenous reference (GAPDH) in each sample. To confirm the specificity of the PCR reaction, PCR products were electrophoresed on a 1.2% agarose gel.

[2] = Day 3, Day 5 and Day 7 of IM-treated NSCs
[3] = Day 5 and Day 7 IM-treated vs non IM-treated NSCs, p<0.05

CN(C)CCCN1c2ccccc2CCc2ccccc21 [IM, imipramine]
significantly increased: cell survival (MTT assay) [1] | level of Bcl-2 mRNA (NSCs; 1, 3 and 5 μM IM, Day 7, vs Day 7 non-IM-treated NSCs) | mRNA level of Bcl-2 (NSCs; [3]) | mRNA level of MAP2 (NSCs; [3])
not activated: expression of Bad (NSCs; [2]) | expression of Bax (NSCs; [2])
